What was measured:
[1] = refractive index (Na D-line) (dimensionless); details: 101.33 kPa, Liquid, Standard Abbe refractometry
[2] = 101 kPa, Liquid; for viscosity: Capillary tube (Ostwald / Ubbelohde) method; for mass density: Vibrating tube method
[3] = xn = mol fraction of the nth substance listed; details: 101 kPa, Liquid; for viscosity: Capillary tube (Ostwald / Ubbelohde) method; for mass density: Vibrating tube method
[4] = refractive index (Na D-line) (dimensionless); xn = mol fraction of the nth substance listed; details: 101 kPa, Liquid, Standard Abbe refractometry

CCC(C)(C)O [2-methylbutan-2-ol]
Details | mass density, 288.15 K [kg/m3] | mass density, 298.15 K [kg/m3] | mass density, 308.15 K [kg/m3] | refractive index, 288.15 K | refractive index, 298.15 K | refractive index, 308.15 K | viscosity, 288.15 K [mPa·s] | viscosity, 298.15 K [mPa·s] | viscosity, 308.15 K [mPa·s]
[1] | – | – | – | 1.4062 | 1.4015 | 1.3968 | – | – | –
[2] | 814.01 | 804.88 | 795.52 | – | – | – | 5.867 | 3.478 | 2.504

CCC(C)(C)O [2-methylbutan-2-ol] + CCCN
x1 = 1
Details | mass density, 288.15 K [kg/m3] | mass density, 298.15 K [kg/m3] | mass density, 308.15 K [kg/m3] | refractive index, 288.15 K | refractive index, 298.15 K | refractive index, 308.15 K | viscosity, 288.15 K [mPa·s] | viscosity, 298.15 K [mPa·s] | viscosity, 308.15 K [mPa·s]
[3] | 814.01 | 804.88 | 795.52 | – | – | – | 5.867 | 3.478 | 2.504
[4] | – | – | – | 1.4062 | 1.4015 | 1.3968 | – | – | –

CCCN [propan-1-amine]
Details | mass density, 288.15 K [kg/m3] | mass density, 298.15 K [kg/m3] | mass density, 308.15 K [kg/m3] | refractive index, 288.15 K | refractive index, 298.15 K | refractive index, 308.15 K | viscosity, 288.15 K [mPa·s] | viscosity, 298.15 K [mPa·s] | viscosity, 308.15 K [mPa·s]
[1] | – | – | – | 1.3899 | 1.3844 | 1.3784 | – | – | –
[2] | 721.57 | 711.08 | 700.4 | – | – | – | 0.3851 | 0.3585 | 0.3222

C1CCOC1 [tetrahydrofuran]
Details | mass density, 288.15 K [kg/m3] | mass density, 298.15 K [kg/m3] | mass density, 308.15 K [kg/m3] | refractive index, 288.15 K | refractive index, 298.15 K | refractive index, 308.15 K | viscosity, 288.15 K [mPa·s] | viscosity, 298.15 K [mPa·s] | viscosity, 308.15 K [mPa·s]
[1] | – | – | – | 1.4086 | 1.4037 | 1.3987 | – | – | –
[2] | 892.92 | 882.03 | 871.01 | – | – | – | 0.4991 | 0.454 | 0.4172

C1CCOC1 [tetrahydrofuran] + CCC(C)(C)O
x2 = 0
Details | mass density, 288.15 K [kg/m3] | mass density, 298.15 K [kg/m3] | mass density, 308.15 K [kg/m3] | refractive index, 288.15 K | refractive index, 298.15 K | refractive index, 308.15 K | viscosity, 288.15 K [mPa·s] | viscosity, 298.15 K [mPa·s] | viscosity, 308.15 K [mPa·s]
[3] | 892.92 | 882.03 | 871.01 | – | – | – | 0.4991 | 0.454 | 0.4172
[4] | – | – | – | 1.4086 | 1.4037 | 1.3987 | – | – | –

C1CCOC1 [tetrahydrofuran] + CCCN
x1 = 1
Details | mass density, 288.15 K [kg/m3] | mass density, 298.15 K [kg/m3] | mass density, 308.15 K [kg/m3] | refractive index, 288.15 K | refractive index, 298.15 K | refractive index, 308.15 K | viscosity, 288.15 K [mPa·s] | viscosity, 298.15 K [mPa·s] | viscosity, 308.15 K [mPa·s]
[3] | 892.92 | 882.03 | 871.01 | – | – | – | 0.4991 | 0.454 | 0.4172
[4] | – | – | – | 1.4086 | 1.4037 | 1.3987 | – | – | –

Source: the NIST ThermoML archive (doi:10.1016/j.jct.2010.05.009)
